The values below come from patent US20180148418A1, “AMIDO-SUBSTITUTED CYCLOHEXANE DERIVATIVES” (Bayer Pharma Aktiengesellschaft, priority 2015, published 2018).

As usually defined, the IC50 is the concentration at which inhibition is half-maximal.

Experiment [1] deals with wildtype Wnt signaling cascade. The experiment can be described thus: HEK293 TOP assay (Super TopFlash luciferase reporter, Wnt-3a stimulated). Type of experiment: cell-based. The conditions noted are these: Homo sapiens, HEK293, 16 h, HEK293 TOP reporter cells, Wnt3a at EC50, 16 hours. In outline:
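HEK293 cells stably carrying Super TopFlash (TOP) run in parallel with FOP cells, 10000/well plated 24 h ahead, stimulated with recombinant human Wnt-3a. Compounds tested 50 μM to 15 nM in 3.16-fold steps in CAFTY buffer pH 7.4 with 2 mM Ca^2+ and 0.01% BSA; luciferase read-out.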
Background: A reporter such as luciferase makes a cellular process visible.

Experiment [2] has as its system HEK293 cells cotransfected with the FOP control vector. The experiment can be described thus: HEK293 FOP assay (control reporter with non-functional TCF elements). Type of experiment: cell-based. Particulars: Homo sapiens, 16 hours. In short, it runs like this: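 Stable HEK293 line carrying FOP control reporter (randomized non-functional TCF sites, with pcDNA3), Geneticin-selected, plated 24 h before assay. Stimulated with recombinant human Wnt-3a (2500-5 ng/ml) and compounds 50 μM–15 nM (3.16-fold steps) in CAFTY buffer pH 7.4 with 2 mM Ca2+, 0.01% BSA, run parallel to TOP line.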

The target in another experiment is T1, TNKS2 (Homo sapiens, UniProt Q9H2K2).
T1 construct: purchased BPS Bioscience, San Diego, USA 80572 (TNKS2 Histone Ribosylation Assay Kit)
T1 sequence (Q9H2K2 1-1166): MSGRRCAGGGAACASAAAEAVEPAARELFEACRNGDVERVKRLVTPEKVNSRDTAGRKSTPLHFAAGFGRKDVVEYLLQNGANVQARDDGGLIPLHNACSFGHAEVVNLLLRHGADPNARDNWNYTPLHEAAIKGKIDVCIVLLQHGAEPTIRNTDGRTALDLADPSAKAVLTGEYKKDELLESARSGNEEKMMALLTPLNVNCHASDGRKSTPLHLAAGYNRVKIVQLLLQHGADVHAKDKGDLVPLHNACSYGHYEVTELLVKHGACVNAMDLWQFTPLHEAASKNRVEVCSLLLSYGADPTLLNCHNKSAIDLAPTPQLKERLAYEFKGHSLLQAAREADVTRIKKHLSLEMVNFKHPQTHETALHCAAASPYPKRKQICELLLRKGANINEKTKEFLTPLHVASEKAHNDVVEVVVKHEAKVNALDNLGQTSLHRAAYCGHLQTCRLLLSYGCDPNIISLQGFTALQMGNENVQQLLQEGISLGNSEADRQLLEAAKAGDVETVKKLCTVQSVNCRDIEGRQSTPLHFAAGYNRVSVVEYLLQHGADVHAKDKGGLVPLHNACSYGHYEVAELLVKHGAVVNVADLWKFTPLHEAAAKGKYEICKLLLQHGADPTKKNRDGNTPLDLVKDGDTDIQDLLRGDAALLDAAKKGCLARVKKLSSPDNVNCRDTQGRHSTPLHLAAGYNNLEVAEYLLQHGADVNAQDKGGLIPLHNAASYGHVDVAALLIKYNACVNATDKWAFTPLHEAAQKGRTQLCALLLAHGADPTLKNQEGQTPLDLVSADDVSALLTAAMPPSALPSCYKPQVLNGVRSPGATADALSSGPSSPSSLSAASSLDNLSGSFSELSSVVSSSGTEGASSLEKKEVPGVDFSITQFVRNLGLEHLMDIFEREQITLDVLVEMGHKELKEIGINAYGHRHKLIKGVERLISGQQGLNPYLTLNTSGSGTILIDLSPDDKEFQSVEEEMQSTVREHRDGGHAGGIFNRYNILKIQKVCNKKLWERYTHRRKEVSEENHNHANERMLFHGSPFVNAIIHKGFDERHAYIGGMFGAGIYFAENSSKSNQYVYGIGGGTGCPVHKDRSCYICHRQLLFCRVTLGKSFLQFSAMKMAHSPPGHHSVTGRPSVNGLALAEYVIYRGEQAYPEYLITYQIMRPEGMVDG
The experiment can be described thus: TNKS2 Assay B (auto-parsylation, [3H]-NAD+ SPA). In kind it is biochemical. Particulars: 6 nM TNKS2, auto-parsylation, over night at room temperature.

Structures are written as SMILES.

In the case of `COCc1cc(C)nc2c(C(=O)N[C@H]3CC[C@@]4(CCN(c5c(F)cc(F)cc5Cl)C4=O)CC3)cnn12` [Example 241, N-[(trans)-2-(2-chloro-4,6-difluorophenyl)-1-oxo-2-azaspiro[4.5]dec-8-yl]-7-(methoxymethyl)-5-methylpyrazolo[1,5-a]pyrimidine-3-carboxamide], the IC50 was found to be 0.99 nM in experiment [1], 8100 nM in experiment [2] and 19 nM at TNKS2.
For `COCc1cc(C)n2ncc(C(=O)N[C@H]3CC[C@@]4(CCN(c5c(F)cc(F)cc5Cl)C4=O)CC3)c2n1` [Example 242, N-[(trans)-2-(2-chloro-4,6-difluorophenyl)-1-oxo-2-azaspiro[4.5]dec-8-yl]-5-(methoxymethyl)-7-methylpyrazolo[1,5-a]pyrimidine-3-carboxamide], in that order: 7.1 nM, at least 50000 nM and 21 nM.
For `O=C(N[C@H]1CC[C@@]2(CCN(c3c(F)cc(F)cc3Cl)C2=O)CC1)c1cnc2cccnn12` [Example 243, N-[(trans)-2-(2-chloro-4,6-difluorophenyl)-1-oxo-2-azaspiro[4.5]dec-8-yl]imidazo[1,2-b]pyridazine-3-carboxamide], in that order: 1.5 nM, at least 50000 nM and 11 nM.
For `O=C(N[C@H]1CC[C@@]2(CCN(c3c(F)cc(F)cc3Cl)C2=O)CC1)c1cnn2cccnc12` [Example 244, N-[(trans)-2-(2-chloro-4,6-difluorophenyl)-1-oxo-2-azaspiro[4.5]dec-8-yl]pyrazolo[1,5-a]pyrimidine-3-carboxamide], in that order: 3.7 nM, at least 500 nM and 6.4 nM.
On to `O=C(N[C@H]1CC[C@@]2(CCN(c3cc(F)cc(F)c3)C2=O)CC1)c1cnn2cccnc12` [Example 245, N-[(trans)-2-(3,5-difluorophenyl)-1-oxo-2-azaspiro[4.5]dec-8-yl]pyrazolo[1,5-a]pyrimidine-3-carboxamide], for which the IC50 was 100 nM in experiment [1], at least 50000 nM in experiment [2] and 720 nM at TNKS2.
For `O=C(N[C@H]1CC[C@@]2(CCN(c3cnccc3Cl)C2=O)CC1)c1cnn2cccnc12` [Example 246, N-[(trans)-2-(4-chloropyridin-3-yl)-1-oxo-2-azaspiro[4.5]dec-8-yl]pyrazolo[1,5-a]pyrimidine-3-carboxamide], in that order: 0.15 nM, at least 50000 nM and 5.9 nM.
With `Cn1nc(C(=O)N[C@H]2CC[C@@]3(CCN(c4ccc(F)cc4Cl)C3=O)CC2)c2ccccc21` [Example 247, N-[(trans)-2-(2-chloro-4-fluorophenyl)-1-oxo-2-azaspiro[4.5]dec-8-yl]-1-methyl-1H-indazole-3-carboxamide], the IC50 in experiment [1] came out at 490 nM; in experiment [2], 13000 nM; on TNKS2 it was 6000 nM.
For `O=C(N[C@H]1CC[C@@]2(CCN(c3ccc(F)cc3Cl)C2=O)CC1)c1n[nH]c2cccc(I)c12` [Example 248, N-[(trans)-2-(2-chloro-4-fluorophenyl)-1-oxo-2-azaspiro[4.5]dec-8-yl]-4-iodo-1H-indazole-3-carboxamide] the same measures were 5100 nM, at least 50000 nM and over 10000 nM.
For `Cn1nc(C(=O)N[C@H]2CC[C@H](C(=O)Nc3ccc(F)cc3Cl)CC2)c2ccccc21` [Example 249, N-{trans-4-[(2-chloro-4-fluorophenyl)carbamoyl]cyclohexyl}-1-methyl-1H-indazole-3-carboxamide], in that order: 14000 nM, at least 50000 nM and over 10000 nM.
Turning to `Cn1nc2ccccc2c1C(=O)N[C@H]1CC[C@H](C(=O)Nc2ccc(F)cc2Cl)CC1` [Example 250, N-{trans-4-[(2-chloro-4-fluorophenyl)carbamoyl]cyclohexyl}-2-methyl-2H-indazole-3-carboxamide], the IC50 was at least 50000 nM in experiment [1], at least 50000 nM in experiment [2] and over 10000 nM at TNKS2.
Turning to `O=C(N[C@H]1CC[C@@]2(CCN(c3ccc(F)cc3Cl)C2=O)CC1)c1n[nH]c2ccccc12` [Example 251, N-[trans-2-(2-chloro-4-fluorophenyl)-1-oxo-2-azaspiro[4.5]dec-8-yl]-1H-indazole-3-carboxamide], the figures for the IC50 (in experiment [1]; in experiment [2]; against TNKS2) were 2500 nM, at least 50000 nM and over 10000 nM, respectively.
For `O=C(N[C@H]1CC[C@H](C(=O)Nc2ccc(F)cc2Cl)CC1)c1c[nH]c2ccccc12` [Example 252, N-{trans-4-[(2-chloro-4-fluorophenyl)carbamoyl]cyclohexyl}-1H-indole-3-carboxamide], in that order: at least 50000 nM, at least 50000 nM and over 10000 nM.
For `O=C(N[C@H]1CC[C@H](C(=O)Nc2ccc(F)cc2Cl)CC1)c1n[nH]c2ccccc12` [Example 253, N-{trans-4-[(2-chloro-4-fluorophenyl)carbamoyl]cyclohexyl}-1H-indazole-3-carboxamide], in that order: 20000 nM, 19000 nM and over 10000 nM.
For `O=C(N[C@H]1CC[C@H](C(=O)Nc2ccc(F)cc2Cl)CC1)c1n[nH]c2ccc(F)cc12` [Example 254, N-{trans-4-[(2-chloro-4-fluorophenyl)carbamoyl]cyclohexyl}-5-fluoro-1H-indazole-3-carboxamide] the same measures were 10000 nM, at least 50000 nM and over 10000 nM.
Consider `O=C(N[C@H]1CC[C@H](C(=O)Nc2ccc(F)cc2Cl)CC1)c1c(Cl)nc2ccccn12` [Example 255, 2-chloro-N-{trans-4-[(2-chloro-4-fluorophenyl)carbamoyl]cyclohexyl}imidazo[1,2-a]pyridine-3-carboxamide], for which the figures for the IC50 (in experiment [1]; in experiment [2]; on TNKS2) were at least 50000 nM, at least 50000 nM and over 10000 nM, respectively.
`NC(=O)c1nc[nH]c1C(=O)N[C@H]1CC[C@@]2(CCN(c3ccccc3Cl)C2=O)CC1` [Example 261, N^5-[(trans)-2-(2-chlorophenyl)-1-oxo-2-azaspiro[4.5]dec-8-yl]-1H-imidazole-4,5-dicarboxamide]: the values for the IC50 (in experiment [1]; in experiment [2]; against TNKS2) were 4.6 nM, at least 50000 nM and 17 nM, respectively.
For `O=C(N[C@H]1CC[C@@]2(CCN(c3ccccc3Cl)C2=O)CC1)c1[nH]cnc1C(=O)N1CC(F)C1` [Example 262, N-[(trans)-2-(2-chlorophenyl)-1-oxo-2-azaspiro[4.5]dec-8-yl]-4-[(3-fluoroazetidin-1-yl)carbonyl]-1H-imidazole-5-carboxamide] the same measures were 0.08 nM, at least 50000 nM and 7 nM.
For `O=C(N[C@H]1CC[C@@]2(CCN(c3ccccc3Cl)C2=O)CC1)c1[nH]cnc1C(=O)N1CC2(COC2)C1` [Example 263, N-[(trans)-2-(2-chlorophenyl)-1-oxo-2-azaspiro[4.5]dec-8-yl]-4-(2-oxa-6-azaspiro[3.3]hept-6-ylcarbonyl)-1H-imidazole-5-carboxamide], in that order: 2.7 nM, at least 50000 nM and 11 nM.
`O=C(N[C@H]1CC[C@@]2(CCN(c3ccccc3Cl)C2=O)CC1)c1n[nH]c2cccnc12` [Example 272, N-[(trans)-2-(2-chlorophenyl)-1-oxo-2-azaspiro[4.5]dec-8-yl]-1H-pyrazolo[4,3-b]pyridine-3-carboxamide]: the results for the IC50 (in experiment [1]; in experiment [2]; on TNKS2) were 200 nM, at least 50000 nM and 640 nM, respectively.
